{"source": "patent US11351124B2", "about": "“Sustained release of formulations of local anesthetics” (EUPRAXIA PHARMACEUTICALS INC., priority 2015, dated 2022)", "key": {"postsurgical pain": {"tested_on": "postsurgical pain", "details": "in vivo; cited from earlier work"}, "[1]": {"assay": "Dissolution of ropivacaine crystals in suspension, USP I apparatus", "format": "physicochemical", "experimental": "Prior to assessing intrinsic dissolution of ropivacaine, the kinetics of dissolution of crystals in suspension was assessed using a USP I apparatus with either large (1 L capacity, filled to 500 mL) or small (150 mL) dissolution baths. The stir speed was 50 rpm in the large vessel method and 100 rpm in the small vessel method and temperature was 37° C. The media was PBS with 0.1% SDS. The commercial ropivacaine was dissolved rapidly with greater than 60% of the material dissolved within 30 minutes. A 17 mg sample dissolving in the large vessel reached a plateau within 4 hours, although only approximately 80% of the ropivacaine added to the experiment was accounted for.\nApproximately 100-120% of the compound was accounted for in this assay. […] The Y-intercept values of the regression is representative of the magnitude of the “burst”, which was 25× higher for the commercial sample compared to the recrystallized sample. See also FIG. 1A."}, "[2]": {"assay": "Solubility of ropivacaine in various aqueous media", "format": "physicochemical", "experimental": "As used herein, the aminoamide local anesthetic agents are typically in the free base form, which have lower solubility in an aqueous medium than their salt form (e.g., HCl salt). The low solubility (e.g., less than 1 mg/ml) enables a rapid formation of a saturated solution within the PVA coating or shell."}, "[3]": {"assay": "Franz cell diffusion of ropivacaine through PVA membranes", "format": "physicochemical", "details": "for Fold Decrease in D: relative to buffer with no membrane", "experimental": "The diffusion behavior of the encapsulated drug in vivo can be predicted based on diffusion coefficient measured in a Franz cell diffusion system. In particular, diffusion coefficient (D) can be quantified according to Equation 1: [formula] where: • D: Diffusion coefficient (cm^2/s) • L: membrane thickness (cm) • J: flux: (μg×cm^−2×s^−1)=slope (μg/mL/h)×volume (9.8 mL)[…](3600 s/h×A cm^2) • A: surface area of the Franz cell (0.650 cm^2) • ΔC: concentration gradient of ropivacaine (μg/mL or μg/cm^3)=339.98 μg/mL (measured […] fluid concentration)−0 μg/mL (assumed […] concentration) The diffusion of ropivacaine through PVA membranes was measured using a Franz diffusion cell system. The system includes a top donor chamber containing a donor fluid, which is sealed with parafilm during the experiment; and a bottom receptor chamber containing a receptor fluid (9.8 mL of PBS pH 7.3). The donor fluid was prepared in a single batch for use in all diffusion experiments, and consisted of PBS pH 7.3. It was prepared by stirring excess solid ropivacaine in the media for 3 days, and filtering to remove the solids with a 0.22 μm filter. The assayed content was 339.98 μg/m L. The rate of appearance of ropivacaine in the Franz cell receptor fluid (the slope of the concentration versus time plot of the data multiplied by the receptor cell volume, 9.8 mL), and the measured membrane thickness (after hydration), were used to calculate the ropivacaine diffusion coefficient through the membrane, using the formula for Fick's law (Equation 1). The concentration of ropivacaine in the receptor (bottom) chamber was measured at different time points, and the diffusion coefficient was determined from Fick's first law of diffusion. Measured concentrations were converted to total drug transport (μg) by multiplying by the receptor fluid volume (9.8 mL for all experiments). FIGS. 3-5 show the diffusion rate for the first 5 hours for three PVA membranes at various degrees of crosslinking induced by various amounts of citric acid."}, "[4]": {"assay": "Intrinsic dissolution of ropivacaine, uncoated vs coated with PVA membrane (FIG. 2)", "format": "physicochemical", "details": "PVA membrane Mn=20-200 kDa, 87% hydrolyzed, 12% citric acid, cured at 125° C. for 6 hours"}, "[5]": {"details": "USP I, PBS with 0.1% SDS, 37° C."}, "[6]": {"details": "PVA membrane 87% hydrolysis, Mn 20-220 kDa, 4% citric acid, 125 °C 6 h"}, "[7]": {"details": "PVA membrane 87% hydrolysis, Mn 20-220 kDa, 8% citric acid, 125 °C 6 h"}, "[8]": {"details": "PVA membrane 87% hydrolysis, Mn 20-220 kDa, 12% citric acid, 125 °C 6 h"}, "[9]": {"details": "PVA membrane 87% hydrolysis, Mn 20-220 kDa, 20% citric acid, 125 °C 6 h"}, "[10]": {"details": "PVA membrane 87% hydrolysis, Mn 20-220 kDa, 30% citric acid, 125 °C 6 h"}, "[11]": {"details": "PVA membrane 87% hydrolysis, Mn 146-186 kDa, 4% citric acid, 125 °C 6 h"}, "[12]": {"details": "PVA membrane 87% hydrolysis, Mn 146-186 kDa, 8% citric acid, 125 °C 6 h"}, "[13]": {"details": "PVA membrane 87% hydrolysis, Mn 146-186 kDa, 12% citric acid, 125 °C 6 h"}, "[14]": {"details": "PVA membrane >99% hydrolysis, Mn 90 kDa, 8% citric acid, 125 °C 6 h"}, "[15]": {"details": "PVA membrane >99% hydrolysis, Mn 90 kDa, 12% citric acid, 125 °C 6 h"}, "[16]": {"details": "PVA membrane >99% hydrolysis, Mn 90 kDa, 20% citric acid, 125 °C 6 h"}, "[17]": {"details": "PVA membrane >99% hydrolysis, Mn 146-186 kDa, 0% citric acid, 125 °C 6 h"}, "[18]": {"details": "PVA membrane >99% hydrolysis, Mn 146-186 kDa, 0% citric acid, 129 °C 3 h"}, "[19]": {"details": "PVA membrane >99% hydrolysis, Mn 146-186 kDa, 0% citric acid, 140 °C 6 h"}, "[20]": {"details": "PVA membrane >99% hydrolysis, Mn 146-186 kDa, 4% citric acid, 125 °C 6 h"}, "[21]": {"details": "PVA membrane >99% hydrolysis, Mn 146-186 kDa, 4% citric acid, 140 °C 6 h"}, "[22]": {"details": "PVA membrane >99% hydrolysis, Mn 146-186 kDa, 8% citric acid, 125 °C 6 h"}, "[23]": {"details": "PVA membrane >99% hydrolysis, Mn 146-186 kDa, 12% citric acid, 125 °C 6 h"}}, "note": "“And” between values parts separate entries of the source, which are not always exact repeats. Equal values may be shown once.", "data": [{"smiles": "CCCCN1CCCCC1C(=O)Nc1c(C)cccc1C", "note": "(centres unmarked) [conventional bupivacaine, bupivacaine]", "values": [{"measurement": "Duration of action", "setting": "postsurgical pain", "value": "≤ 7", "unit": "h"}]}, {"smiles": "CCCN1CCCC[C@H]1C(=O)Nc1c(C)cccc1C", "note": "[commercial ropivacaine, ropivacaine]", "values": [{"measurement": "Time to reach dissolution plateau", "setting": "[1]; 17 mg sample, large vessel (500 mL, 50 rpm), PBS with 0.1% SDS, 37° C.", "value": "≤ 4", "unit": "h"}, {"measurement": "Ropivacaine added to the experiment accounted for", "setting": "[1]; 17 mg sample, large vessel, at plateau", "value": "approximately 80%"}, {"measurement": "Material dissolved within 30 minutes", "setting": "[1]; [5]", "value": "greater than 60%"}, {"measurement": "Magnitude of the burst (Y-intercept of regression), compared to the recrystallized sample", "setting": "[1]; small vessel apparatus, burst phase within first 30 minutes", "value": 25, "unit": "×"}]}, {"smiles": "CCCN1CCCC[C@H]1C(=O)Nc1c(C)cccc1C", "note": "[recrystallized ropivacaine, ropivacaine]", "values": [{"measurement": "Rate of dissolution slowed as compared to commercial ropivacaine", "setting": "[1]; FIG. 1A", "value": "about 10 times"}, {"measurement": "Compound accounted for in this assay", "setting": "[1]; [5]", "value": "100-120%"}, {"measurement": "Material dissolved over the first 6 hours (gradual dissolution)", "setting": "[1]; [5]", "value": 60, "unit": "%"}]}, {"smiles": "CCCN1CCCC[C@H]1C(=O)Nc1c(C)cccc1C", "note": "[ropivacaine]", "values": [{"measurement": "solubility", "setting": "[2]; PBS + 0.05% SDS, pH 7.4, aqueous with cosolvent or surfactant or cyclodextrin", "value": "254 ± 14", "unit": "µg/mL"}, {"measurement": "solubility", "setting": "[2]; PBS + 68 mg/mL BSA, pH 7.4, plasma or biological fluid", "value": "792 ± 111", "unit": "µg/mL"}, {"measurement": "solubility", "setting": "[2]; PBS + 0.1% SDS, pH 7.4, aqueous with cosolvent or surfactant or cyclodextrin", "value": "306 ± 18", "unit": "µg/mL"}, {"measurement": "solubility", "setting": "[2]; PBS + 0.2% SDS, pH 7.4, aqueous with cosolvent or surfactant or cyclodextrin", "value": "350 ± 12", "unit": "µg/mL"}, {"measurement": "solubility", "setting": "[2]; aqueous buffer, PBS (pH 7.4)", "value": "254 ± 13", "unit": "µg/mL"}, {"measurement": "Assayed content of saturated ropivacaine donor fluid", "setting": "[3]; PBS pH 7.3, excess solid stirred 3 days, filtered 0.22 μm", "value": 339.98, "unit": "μg/m L"}, {"measurement": "Diffusion of ropivacaine in PBS (diffusion coefficient)", "setting": "[3]; PBS, no membrane, D defined in cm^2/s", "value": "4.97×10^−6"}, {"measurement": "D, ropivacaine diffusion coefficient", "setting": "[3]; [6]", "value": "1.94E−07 cm^2/s and 2.23E−07 cm^2/s"}, {"measurement": "D, ropivacaine diffusion coefficient", "setting": "[3]; [7]", "value": "2.20E−07 cm^2/s and 3.01E−07 cm^2/s"}, {"measurement": "D, ropivacaine diffusion coefficient", "setting": "[3]; [8]", "value": "4.30E−07 cm^2/s and 5.43E−07 cm^2/s"}, {"measurement": "D, ropivacaine diffusion coefficient", "setting": "[3]; [9]", "value": "6.26E−07 cm^2/s and 3.64E−07 cm^2/s"}, {"measurement": "D, ropivacaine diffusion coefficient", "setting": "[3]; [10]", "value": "4.88E−07 cm^2/s and 2.82E−07 cm^2/s"}, {"measurement": "D, ropivacaine diffusion coefficient", "setting": "[3]; [11]", "value": "2.32E−07 cm^2/s and 2.64E−07 cm^2/s"}, {"measurement": "D, ropivacaine diffusion coefficient", "setting": "[3]; [12]", "value": "2.30E−07 cm^2/s and 2.93E−07 cm^2/s"}, {"measurement": "D, ropivacaine diffusion coefficient", "setting": "[3]; [13]", "value": "3.85E−07 cm^2/s and 2.90E−07 cm^2/s"}, {"measurement": "D, ropivacaine diffusion coefficient", "setting": "[3]; [14]", "value": "1.68E−07 cm^2/s and 1.99E−07 cm^2/s"}, {"measurement": "D, ropivacaine diffusion coefficient", "setting": "[3]; [15]", "value": "3.59E−07 cm^2/s and 3.41E−07 cm^2/s"}, {"measurement": "D, ropivacaine diffusion coefficient", "setting": "[3]; [16]", "value": "2.38E−07 cm^2/s and 2.01E−07 cm^2/s"}, {"measurement": "D, ropivacaine diffusion coefficient", "setting": "[3]; [17]", "value": "9.09E−08 cm^2/s and 9.21E−08 cm^2/s"}, {"measurement": "D, ropivacaine diffusion coefficient", "setting": "[3]; [18]", "value": "1.47E−07", "unit": "cm^2/s"}, {"measurement": "D, ropivacaine diffusion coefficient", "setting": "[3]; [19]", "value": "1.33E−07 cm^2/s and 1.19E−07 cm^2/s"}, {"measurement": "D, ropivacaine diffusion coefficient", "setting": "[3]; [20]", "value": "2.40E−07 cm^2/s and 2.15E−07 cm^2/s"}, {"measurement": "D, ropivacaine diffusion coefficient", "setting": "[3]; [21]", "value": "1.97E−07 cm^2/s and 1.44E−07 cm^2/s"}, {"measurement": "D, ropivacaine diffusion coefficient", "setting": "[3]; [22]", "value": "2.02E−07 cm^2/s and 1.91E−07 cm^2/s"}, {"measurement": "D, ropivacaine diffusion coefficient", "setting": "[3]; [23]", "value": "2.41E−07 cm^2/s and 2.18E−07 cm^2/s"}, {"measurement": "Decrease in diffusion coefficient compared to diffusion of ropivacaine in PBS", "setting": "[3]; PVA membranes 146-186 kDa, >99% hydrolysis, after thermal curing and physical crosslinking", "value": 50, "unit": "times"}, {"measurement": "Fold Decrease in D", "setting": "[3]; [6]", "value": "26 and 22"}, {"measurement": "Fold Decrease in D", "setting": "[3]; [7]", "value": "23 and 17"}, {"measurement": "Fold Decrease in D", "setting": "[3]; [8]", "value": "12 and 9"}, {"measurement": "Fold Decrease in D", "setting": "[3]; [9]", "value": "8 and 14"}, {"measurement": "Fold Decrease in D", "setting": "[3]; [10]", "value": "10 and 18"}, {"measurement": "Fold Decrease in D", "setting": "[3]; [11]", "value": "21 and 19"}, {"measurement": "Fold Decrease in D", "setting": "[3]; [12]", "value": "22 and 17"}, {"measurement": "Fold Decrease in D", "setting": "[3]; [13]", "value": "13 and 17"}, {"measurement": "Fold Decrease in D", "setting": "[3]; [14]", "value": "30 and 25"}, {"measurement": "Fold Decrease in D", "setting": "[3]; [15]", "value": "14 and 15"}, {"measurement": "Fold Decrease in D", "setting": "[3]; [16]", "value": "21 and 25"}, {"measurement": "Fold Decrease in D", "setting": "[3]; [17]", "value": "55 and 54"}, {"measurement": "Fold Decrease in D", "setting": "[3]; [18]", "value": 34}, {"measurement": "Fold Decrease in D", "setting": "[3]; [19]", "value": "37 and 42"}, {"measurement": "Fold Decrease in D", "setting": "[3]; [20]", "value": "21 and 23"}, {"measurement": "Fold Decrease in D", "setting": "[3]; [21]", "value": "25 and 34"}, {"measurement": "Fold Decrease in D", "setting": "[3]; [22]", "value": "25 and 26"}, {"measurement": "Fold Decrease in D", "setting": "[3]; [23]", "value": "21 and 23"}, {"measurement": "Intrinsic dissolution compared with ropivacaine coated with PVA membrane", "setting": "[4]", "value": "much more rapid"}]}]}
